Read-outs that look alike come from different tables or passages of the source.
Tests used:
[1] = 13-membered ring, DMF
[2] = 13-membered ring, DMF; remark: listed apart in the source
[3] = target: T1, CFTR-mediated chloride transport in human intestinal epithelial enteroid cells (Homo sapiens, UniProt P13569); assay: Membrane potential dye, Enteroid Assay B; format: cell-based; conditions: Enteroid Assay B; for EC50: read-out: Ent. B EC50
Summary of the method: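 After dye loading (20 μM methyl oxonol with 30 μM CaCCinh-A01 and 30 μM Chicago Sky Blue, 25 min at room temperature), enteroid cells were exchanged into chloride-free buffer. Fluorescence was recorded for 15 min after adding stimulation solution to drive CFTR-mediated chloride transport.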

[4] = target: T1, CFTR-mediated chloride transport in human intestinal epithelial enteroid cells; assay: Membrane potential dye, Enteroid Assay A; format: cell-based; conditions: Enteroid Assay A; for EC50: read-out: Ent. A EC50
Summary of the method: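 Membrane potential dye (20 μM methyl oxonol, with 30 μM CaCCinh-A01 and 30 μM Chicago Sky Blue) loaded 25 min at room temperature into ROCK-inhibitor-seeded human enteroid cells. Chloride-free stimulation buffer triggered transport, followed by 15 min fluorescence. % Activity relative to 3 μM/3 μM/300 nM triple-combination control.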

T1 sequence (P13569 with tags, fused parts or gaps DEL508-508): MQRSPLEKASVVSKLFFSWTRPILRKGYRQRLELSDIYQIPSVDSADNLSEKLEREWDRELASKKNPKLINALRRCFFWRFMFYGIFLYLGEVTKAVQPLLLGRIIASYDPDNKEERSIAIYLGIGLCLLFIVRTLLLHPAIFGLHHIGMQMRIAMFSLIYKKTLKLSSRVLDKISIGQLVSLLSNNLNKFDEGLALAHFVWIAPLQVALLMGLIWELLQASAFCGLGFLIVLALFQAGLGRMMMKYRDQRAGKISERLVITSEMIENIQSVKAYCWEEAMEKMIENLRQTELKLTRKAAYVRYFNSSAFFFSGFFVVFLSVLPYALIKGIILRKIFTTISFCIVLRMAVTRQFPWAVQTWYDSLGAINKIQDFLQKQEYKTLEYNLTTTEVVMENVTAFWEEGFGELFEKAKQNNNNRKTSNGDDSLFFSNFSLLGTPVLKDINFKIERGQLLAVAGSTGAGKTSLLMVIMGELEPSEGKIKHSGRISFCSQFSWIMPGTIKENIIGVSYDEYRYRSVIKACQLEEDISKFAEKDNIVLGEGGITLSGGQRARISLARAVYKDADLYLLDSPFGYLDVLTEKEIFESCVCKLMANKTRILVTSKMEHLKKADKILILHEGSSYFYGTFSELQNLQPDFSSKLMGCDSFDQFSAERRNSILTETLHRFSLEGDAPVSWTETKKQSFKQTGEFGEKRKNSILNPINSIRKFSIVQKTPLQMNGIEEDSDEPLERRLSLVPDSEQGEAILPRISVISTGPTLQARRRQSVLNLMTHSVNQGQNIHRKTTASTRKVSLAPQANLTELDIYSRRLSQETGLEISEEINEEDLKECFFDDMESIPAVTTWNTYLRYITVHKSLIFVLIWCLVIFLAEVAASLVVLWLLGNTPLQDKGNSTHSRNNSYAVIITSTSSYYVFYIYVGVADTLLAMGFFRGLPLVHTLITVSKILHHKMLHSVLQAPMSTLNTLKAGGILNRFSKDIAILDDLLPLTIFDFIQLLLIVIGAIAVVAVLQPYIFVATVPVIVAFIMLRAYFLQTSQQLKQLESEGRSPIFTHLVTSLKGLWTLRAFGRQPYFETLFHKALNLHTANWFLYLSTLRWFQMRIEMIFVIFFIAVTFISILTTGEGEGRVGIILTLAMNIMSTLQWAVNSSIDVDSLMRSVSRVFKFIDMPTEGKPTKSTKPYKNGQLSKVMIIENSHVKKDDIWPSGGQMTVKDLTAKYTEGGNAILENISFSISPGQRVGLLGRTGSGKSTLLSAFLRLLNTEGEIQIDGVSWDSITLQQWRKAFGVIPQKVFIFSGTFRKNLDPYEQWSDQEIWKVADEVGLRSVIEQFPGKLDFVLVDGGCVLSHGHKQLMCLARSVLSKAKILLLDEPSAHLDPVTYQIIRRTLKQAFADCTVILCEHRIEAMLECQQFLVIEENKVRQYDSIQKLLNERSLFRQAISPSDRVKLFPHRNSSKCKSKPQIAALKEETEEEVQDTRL

Cc1cccc(C)c1-c1cc2nc(n1)NS(=O)(=O)c1cccc(c1)C(=O)N1C(c3ncc(OC(C)C)cn3)CCCC(CC(C)C)C1CO2 (stereo not shown)
ring closure, yield after HPLC ([1]; from Cc1cccc(C)c1-c1cc(OCC2NC(c3ncc(OC(C)C)cn3)CCCC2CC(C)C)nc(NS(=O)(=O)c2cccc(C(=O)O)c2)n1, amide bond, CDMT/NMM, 13.7 mM, 48.0 h, 2 steps): 12%
ring closure, isolated yield ([2]; from Cc1cccc(C)c1-c1cc(OCC2NC(c3ncc(OC(C)C)cn3)CCCC2CC(C)C)nc(NS(=O)(=O)c2cccc(C(=O)O)c2)n1, amide bond, CDMT/NMM, 14.3 mM, 48.0 h, 2 steps): 41%

Cc1cccc(C)c1-c1cc2nc(n1)NS(=O)(=O)c1cccc(c1)C(=O)N1CCN(Cc3ccccc3)CC(O2)C1CC(C)C (stereo not shown)
ring closure, yield after HPLC ([1]; from Cc1cccc(C)c1-c1cc(Cl)nc(NS(=O)(=O)c2cccc(C(=O)N3CCN(Cc4ccccc4)CC(O)C3CC(C)C)c2)n1, snar bond, NaH, 15.2 mM, 25.0 °C, 24.0 h): 11%
ring closure, isolated yield ([2]; from Cc1cccc(C)c1-c1cc(Cl)nc(NS(=O)(=O)c2cccc(C(=O)N3CCN(Cc4ccccc4)CC(O)C3CC(C)C)c2)n1, snar bond, NaH, 15.6 mM, 25.0 °C, 23.0 h): 21%

Cc1cccc(C)c1-c1cc2nc(n1)NS(=O)(=O)c1cccc(c1)C(=O)N1CCc3cc(C(C)(C)C)ccc3C1CO2 (single isomer, unassigned) [Compound 235, 8-tert-butyl-17-(2,6-dimethylphenyl)-14-oxa-21λ^6-thia-3,18,20,27-tetraazapentacyclo[20.3.1.115,19.03,12.06,11]heptacosa-1(26),6(11),7,9,15(27),16,18,22,24-nonaene-2,21,21-trione]
ring closure, isolated yield ([2]; from Cc1cccc(C)c1-c1cc(OCC2NCCc3cc(C(C)(C)C)ccc32)nc(NS(=O)(=O)c2cccc(C(=O)O)c2)n1, amide bond, HATU/Et3N, 16.5 mM, 25.0 °C, 16.0 h): 34%
Ent. B Max Activity (%) [3]: ++ (++ is 30-60%)
EC50 [3]: < 1000 nM

Cc1cccc(C)c1-c1cc2nc(n1)NS(=O)(=O)c1cccc(c1)C(=O)N1CCN(C(=O)OC(C)(C)C)[C@H](CC(C)C)[C@H](C1)O2 [Compound 114, tert-Butyl (16S,17R)-12-(2,6-dimethylphenyl)-17-(2-methylpropyl)-2,8,8-trioxo-15-oxa-8λ^6-thia-1,9,11,18,22-pentaazatetracyclo[14.4.1.13,7.110,14]tricosa-3(23),4,6,10(22),11,13-hexaene-18-carboxylate]
ring closure, isolated yield ([2]; from Cc1cccc(C)c1-c1cc(Cl)nc(NS(=O)(=O)c2cccc(C(=O)N3CCN(C(=O)OC(C)(C)C)[C@H](CC(C)C)[C@@H](O)C3)c2)n1, snar bond, NaH, 30.9 mM, 1.67 h): 34%
Ent. A Max Activity (%) [4]: +++ (+++ is >600%)
EC50 [4]: < 1000 nM

Cc1cccc(C)c1-c1cc2nc(n1)NS(=O)(=O)c1cccc(c1)C(=O)N1CCN(C(=O)OC(C)(C)C)[C@H](CC(C)C)[C@@H](C1)O2 [Compound 115, tert-Butyl (16R,17R)-12-(2,6-dimethylphenyl)-17-(2-methylpropyl)-2,8,8-trioxo-15-oxa-8λ^6-thia-1,9,11,18,22-pentaazatetracyclo[14.4.1.13,7.110,14]tricosa-3(23),4,6,10(22),11,13-hexaene-18-carboxylate]
ring closure, isolated yield ([2]; from Cc1cccc(C)c1-c1cc(Cl)nc(NS(=O)(=O)c2cccc(C(=O)N3CCN(C(=O)OC(C)(C)C)[C@H](CC(C)C)[C@H](O)C3)c2)n1, snar bond, NaH, 31.6 mM, 1.67 h): 67%
Ent. A Max Activity (%) [4]: ++ (++ is 30-60%)
EC50 [4]: < 1000 nM

Cc1cccc(C)c1-c1cc2nc(n1)NS(=O)(=O)c1cccc(c1)C(=O)N1CCN(C(=O)OC(C)(C)C)[C@@H](CC(C)C)[C@@H](C1)O2 [Compound 116, tert-Butyl (16R,17S)-12-(2,6-dimethylphenyl)-17-(2-methylpropyl)-2,8,8-trioxo-15-oxa-8λ^6-thia-1,9,11,18,22-pentaazatetracyclo[14.4.1.13,7.110,14]tricosa-3(23),4,6,10(22),11,13-hexaene-18-carboxylate]
ring closure, isolated yield ([2]; from Cc1cccc(C)c1-c1cc(Cl)nc(NS(=O)(=O)c2cccc(C(=O)N3CCN(C(=O)OC(C)(C)C)[C@@H](CC(C)C)[C@H](O)C3)c2)n1, snar bond, NaH, 31.0 mM, 5.17 h): 36%
Ent. A Max Activity (%) [4]: ++ (++ is 30-60%)
EC50 [4]: < 1000 nM

Cc1cccc(C)c1-c1cc2nc(n1)NS(=O)(=O)c1cccc(c1)C(=O)N1C[C@@H](CN(C(=O)OC(C)(C)C)C[C@H]1C(C)C)O2 [Compound 124, tert-Butyl (16S,20R)-12-(2,6-dimethylphenyl)-2,8,8-trioxo-20-(propan-2-yl)-15-oxa-8λ^6-thia-1,9,11,18,22-pentaazatetracyclo[14.4.1.13,7.110,14]tricosa-3(23),4,6,10(22),11,13-hexaene-18-carboxylate]
ring closure, isolated yield ([2]; from Cc1cccc(C)c1-c1cc(Cl)nc(NS(=O)(=O)c2cccc(C(=O)N3C[C@H](O)CN(C(=O)OC(C)(C)C)C[C@H]3C(C)C)c2)n1, snar bond, NaH, 30.5 mM, 3.17 h): 35%
Ent. A Max Activity (%) [4]: +++ (+++ is >600%)
EC50 [4]: < 1000 nM

Cc1cccc(C)c1-c1cc2nc(n1)NS(=O)(=O)c1cccc(c1)C(=O)N1C[C@@H](CN(C(=O)OC(C)(C)C)C[C@@H]1CCC(C)C)O2 [Compound 129, tert-Butyl (16S,20S)-12-(2,6-dimethylphenyl)-20-(3-methylbutyl)-2,8,8-trioxo-15-oxa-8λ^6-thia-1,9,11,18,22-pentaazatetracyclo[14.4.1.13,7.110,14]tricosa-3(23),4,6,10(22),11,13-hexaene-18-carboxylate]
ring closure, isolated yield ([2]; from Cc1cccc(C)c1-c1cc(Cl)nc(NS(=O)(=O)c2cccc(C(=O)N3C[C@H](O)CN(C(=O)OC(C)(C)C)C[C@@H]3CCC(C)C)c2)n1, snar bond, NaH, 29.8 mM, 3.67 h): 53%
Ent. A Max Activity (%) [4]: ++ (++ is 30-60%)
EC50 [4]: < 1000 nM

Cc1cccc(C)c1-c1cc2nc(n1)NS(=O)(=O)c1cccc(c1)C(=O)N1C[C@@H](CN(C(=O)OC(C)(C)C)C[C@@H]1C(C)C)O2 [Compound 132, tert-Butyl (16S,20S)-12-(2,6-dimethylphenyl)-2,8,8-trioxo-20-(propan-2-yl)-15-oxa-8λ^6-thia-1,9,11,18,22-pentaazatetracyclo[14.4.1.13,7.110,14]tricosa-3(23),4,6,10(22),11,13-hexaene-18-carboxylate]
ring closure, isolated yield ([2]; from Cc1cccc(C)c1-c1cc(Cl)nc(NS(=O)(=O)c2cccc(C(=O)N3C[C@H](O)CN(C(=O)OC(C)(C)C)C[C@@H]3C(C)C)c2)n1, snar bond, NaH, 29.4 mM, 3.17 h): 46%
Ent. A Max Activity (%) [4]: ++ (++ is 30-60%)
EC50 [4]: < 1000 nM

Cc1cccc(C)c1-c1cc2nc(n1)NS(=O)(=O)c1cccc(c1)C(=O)N1C[C@@H](CN(C(=O)OC(C)(C)C)C[C@@H]1CC(C)(C)C)O2 [Compound 134, tert-Butyl (16S,20S)-12-(2,6-dimethylphenyl)-20-(2,2-dimethylpropyl)-2,8,8-trioxo-15-oxa-8λ^6-thia-1,9,11,18,22-pentaazatetracyclo[14.4.1.13,7.110,14]tricosa-3(23),4,6,10(22),11,13-hexaene-18-carboxylate]
ring closure, isolated yield ([2]; from Cc1cccc(C)c1-c1cc(O[C@H]2CN[C@@H](CC(C)(C)C)CN(C(=O)OC(C)(C)C)C2)nc(NS(=O)(=O)c2cccc(C(=O)O)c2)n1, amide bond, HATU/DIEA, 29.2 mM, 25.0 °C, 0.33 h): 57%
Ent. A Max Activity (%) [4]: ++ (++ is 30-60%)
EC50 [4]: < 1000 nM

Cc1cccc(C)c1-c1cc2nc(n1)NS(=O)(=O)c1cccc(c1)C(=O)N1CC3CN(Cc4ccccc4)CC3(C1)O2 (stereo not shown) [Compound 210, 20-Benzyl-5-(2,6-dimethylphenyl)-2-oxa-9λ^6-thia-6,8,16,20,24-pentaazapentacyclo[14.5.1.13,7.110,14.01,18]tetracosa-3(24),4,6,10,12,14(23)-hexaene-9,9,15-trione]
ring closure, isolated yield ([2]; from Cc1cccc(C)c1-c1cc(Cl)nc(NS(=O)(=O)c2cccc(C(=O)N3CC4CN(Cc5ccccc5)CC4(O)C3)c2)n1, snar bond, NaH, 33.1 mM, 25.0 °C, 24.0 h): 26%
Ent. A Max Activity (%) [4]: +++ (+++ is >600%)
EC50 [4]: < 1000 nM

Cc1cccc(C)c1-c1cc2nc(n1)NS(=O)(=O)c1cccc(c1)C(=O)N1C[C@@H](CCC1CC(C)C)O2 (stereo partly drawn) [Compound 234, (3R)-18-(2,6-Dimethylphenyl)-6-(2-methylpropyl)-2-oxa-14λ^6-thia-7,15,17,20-tetraazatetracyclo[14.3.1.13,7.19,13]docosa-1(20),9(21),10,12,16,18-hexaene-8,14,14-trione]
ring closure, isolated yield ([2]; from Cc1cccc(C)c1-c1cc(Cl)nc(NS(=O)(=O)c2cccc(C(=O)N3C[C@H](O)CCC3CC(C)C)c2)n1, snar bond, NaH, 11.6 mM, 25.0 °C, 16.0 h): 38%
Ent. B Max Activity (%) [3]: +++ (+++ is >600%)
EC50 [3]: < 1000 nM
